{"source": "ChEMBL document CHEMBL5046296", "about": "(J Med Chem, 2022)", "molecular_target": "Voltage-gated inwardly rectifying potassium channel KCNH2 (Homo sapiens, UniProt Q12809)", "sequence (Q12809 whole entry)": "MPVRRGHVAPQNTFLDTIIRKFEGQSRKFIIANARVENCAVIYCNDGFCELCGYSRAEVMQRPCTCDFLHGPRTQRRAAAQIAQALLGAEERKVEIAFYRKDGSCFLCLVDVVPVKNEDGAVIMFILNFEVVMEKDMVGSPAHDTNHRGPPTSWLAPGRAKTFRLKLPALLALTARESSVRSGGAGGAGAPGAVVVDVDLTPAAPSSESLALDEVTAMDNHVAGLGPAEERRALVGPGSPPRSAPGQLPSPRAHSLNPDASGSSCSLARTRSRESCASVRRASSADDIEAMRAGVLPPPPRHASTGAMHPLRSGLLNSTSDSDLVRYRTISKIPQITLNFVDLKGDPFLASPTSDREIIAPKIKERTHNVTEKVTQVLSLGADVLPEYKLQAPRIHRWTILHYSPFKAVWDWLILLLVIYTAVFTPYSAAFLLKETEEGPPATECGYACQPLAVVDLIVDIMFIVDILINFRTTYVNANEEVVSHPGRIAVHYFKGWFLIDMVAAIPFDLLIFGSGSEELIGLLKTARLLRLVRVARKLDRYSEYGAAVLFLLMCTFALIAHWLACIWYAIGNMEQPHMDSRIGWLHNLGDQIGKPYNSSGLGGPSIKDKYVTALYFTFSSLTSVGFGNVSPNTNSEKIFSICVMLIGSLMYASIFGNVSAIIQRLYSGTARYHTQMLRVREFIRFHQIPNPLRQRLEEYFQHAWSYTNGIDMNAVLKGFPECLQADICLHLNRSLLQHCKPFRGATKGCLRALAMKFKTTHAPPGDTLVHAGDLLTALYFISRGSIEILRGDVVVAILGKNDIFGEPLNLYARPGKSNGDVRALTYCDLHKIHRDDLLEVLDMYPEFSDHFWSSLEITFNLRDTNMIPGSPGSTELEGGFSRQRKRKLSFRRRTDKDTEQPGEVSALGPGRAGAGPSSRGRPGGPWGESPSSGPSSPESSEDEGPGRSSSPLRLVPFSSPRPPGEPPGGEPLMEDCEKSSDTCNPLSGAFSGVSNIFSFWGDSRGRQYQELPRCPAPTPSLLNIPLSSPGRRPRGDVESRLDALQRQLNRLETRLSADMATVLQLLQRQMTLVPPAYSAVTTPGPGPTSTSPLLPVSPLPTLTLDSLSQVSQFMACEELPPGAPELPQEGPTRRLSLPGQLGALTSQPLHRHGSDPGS", "test": "Inhibition of human ERG by patch clamp assay", "format": "toxicity"}
{"smiles": "CC(C)C[C@](C)(N)COc1ccc(-c2ccnc(C(F)F)c2)nc1C(F)F", "note": "[PILAVAPADIN]", "values": [{"measurement": "IC50", "result": 1.4, "unit": "µM"}]}
